In publication PMC4644118 (Journal of medicinal chemistry, 2015):

Key:
[1] = mice; background statement on previous lead; cited from earlier work
rat nNOS = rat nNOS (Rattus norvegicus, UniProt P29476); assay: hemoglobin capture assay, purified rat nNOS; format: biochemical; settings: relative to 21

Compound | oral bioavailability and brain permeation [1] | fold weaker binding to nNOS than 21 (rat nNOS) [fold]
Cl.Cl.Nc1ccc2ccc(CCNCCc3cccc(F)c3)cc2n1 [Compound 1] | good oral bioavailability and brain permeation | 
Cl.Cl.Nc1ccc2ccc(COc3cccnc3)cc2n1 [Compound 11, 7-[(Pyridin-3-yloxy)methyl]quinolin-2-amine Dihydrochloride] |  | ~17
